Assay results published in US5516889A, “Synthetic thrombin receptor peptides” (University Technologies International, Inc., priority 1995, dated 1996).
Where two headings read alike, the source gives them in different places. Residues, ends and D or L forms follow the SMILES beside them. *: point of attachment. Propionyl = CCC(=O)*

Legend:
[1] = target: T1, thrombin receptor (guinea pig gastric longitudinal muscle strips) (Cavia porcellus, UniProt A0A286XH07); details: for Effect of inhibitor on contractile actions of P5--NH2 and Pr-P4: GLM
T1 sequence (A0A286XH07 24-426): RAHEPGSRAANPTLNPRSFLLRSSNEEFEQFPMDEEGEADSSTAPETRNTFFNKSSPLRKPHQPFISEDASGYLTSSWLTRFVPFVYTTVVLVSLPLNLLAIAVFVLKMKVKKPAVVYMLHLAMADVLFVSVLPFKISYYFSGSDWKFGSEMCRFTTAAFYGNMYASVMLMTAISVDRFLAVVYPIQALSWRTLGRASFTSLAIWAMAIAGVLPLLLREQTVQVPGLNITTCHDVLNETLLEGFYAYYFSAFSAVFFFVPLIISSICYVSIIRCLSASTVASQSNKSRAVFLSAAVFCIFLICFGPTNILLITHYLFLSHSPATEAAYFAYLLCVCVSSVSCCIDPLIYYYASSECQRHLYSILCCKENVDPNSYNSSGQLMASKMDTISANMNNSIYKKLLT
Method: (§1) The guinea pig gastric longitudinal muscle (GLM) strips and the rat thoracic aorta (RA) ring preparations were isolated as previously described 14, 15. In brief, gastric LM strips (3×10 mm), obtained from male albino Hartley strain guinea pigs were equilibrated for about 1.5 h at 37° (in an aerated (95% O2 /5% CO2) Krebs-Henseleit buffer (3 mL) of the following composition (in mM): NaCl, 118; KCl, 4.7; CaCl2, 2.5; MgCl2, 1.2; NaHCO3, 25; KH2 PO4, 1.2; and glucose, 10. The pH was maintained at 7.4. Rat gastric LM strips (3×10 mm) were obtained, as for the GLM strips, from male albino Sprague Dawley animals (250-300 g). The stomach, opened along the greater curvature, was stripped free of all mucosal tissue under microscopic visualization and longitudinal tissue strips were cut exactly at right angles to the visible circular muscle bundles. Tissue strips were pre-equilibrated in the buffer described above. Each tissue was challenged twice each in succession at timed intervals with 50 nM carbachol (20 min intervals), 1 μM angiotensin-II (1 h intervals) and 95 μM (60 μg/mL) receptor pentapeptide (P5, SFLLR, SEQ ID NO: 2) (25 min intervals for GLM; 30-35 min for RLM); tissues were washed at 10 and 15 min after the additions of agonists. Contractions were monitored isometrically using Statham force-displacement transducers. Only tissues responding well to all three agonists were used further for the evaluation of the biological activities of P5 and other peptide agonists.

[2] = tested on: thrombin receptor (rat thoracic aorta rings, intact endothelium); details: for Agonist (relaxation) activity: precontracted with 0.1 μM noradrenaline
Method: Thoracic RA rings (2 mm×3 mm), obtained from male albino Sprague Dawley rats, were equilibrated (about 1 h, 37° ) in the same organ bath buffer as was used for the LM tissue, and tension (baseline 1.0 g) was monitored isometrically using either Statham or Grass force-displacement transducers. The presence of an intact endothelium was ascertained by monitoring a relaxation response to acetylcholine (ACh, 1 μM) in a preparation that was submaximally (EC75) contracted by 0.1 μM noradrenaline (NA) in the presence of 0.1 mM ascorbic acid (to preserve the catecholamine). Only tissues yielding a relaxation concentration-response curve between 0.01 and 10 μM acetylcholine (maximal relaxation of 70 to 90%, relative to the tension developed by 0.1 μM NA) were used for the further evaluation of the receptor-derived peptides. The assay of TRP responsiveness was done (e.g. see FIG. 1) on tissues that were precontacted with 0.1 μM NA at 30 min time intervals. Tissues were washed approx. 5 min after the application of TRPs. […] For purposes of comparison, the same stock solutions of an individual peptide were evaluated, relative to P5, in both the RA and LM bioassays. When possible, both assays were done simultaneously on the same day.
Weighed peptide samples were routinely dissolved in 50 mM phosphate buffer, pH 7.4, to yield stock solutions, from which volumes of up to 0.2 mL were added directly to the organ bath; the concentrations of all stock solutions used were verified by quantitative amino acid analysis of aliquots. Pr-P4 and Pr-P4--NH2 were dissolved in 40 mM phosphate buffer, pH 7.4, containing 20% v/v absolute ethanol (i.e. 8 Vol of the above 50 mM phosphate buffer +2 Vol. ethanol). […] Indomethacin was dissolved in ethanol, such that the final ethanol concentration in the organ bath was at or lower than 0.01% v/v; this concentration of ethanol alone had no effect on the bioassay systems.

[3] = target: T2, thrombin receptor (rat gastric longitudinal muscle strips) (Rattus norvegicus, UniProt P26824); assay: Rat gastric longitudinal muscle (RLM) strip contractile assay; type: cell-based
T2 construct: Rat gastric LM strips (3×10 mm) were obtained; from tissue; host or cells: rat (Sprague Dawley) gastric longitudinal muscle strips
T2 sequence (P26824 22-432): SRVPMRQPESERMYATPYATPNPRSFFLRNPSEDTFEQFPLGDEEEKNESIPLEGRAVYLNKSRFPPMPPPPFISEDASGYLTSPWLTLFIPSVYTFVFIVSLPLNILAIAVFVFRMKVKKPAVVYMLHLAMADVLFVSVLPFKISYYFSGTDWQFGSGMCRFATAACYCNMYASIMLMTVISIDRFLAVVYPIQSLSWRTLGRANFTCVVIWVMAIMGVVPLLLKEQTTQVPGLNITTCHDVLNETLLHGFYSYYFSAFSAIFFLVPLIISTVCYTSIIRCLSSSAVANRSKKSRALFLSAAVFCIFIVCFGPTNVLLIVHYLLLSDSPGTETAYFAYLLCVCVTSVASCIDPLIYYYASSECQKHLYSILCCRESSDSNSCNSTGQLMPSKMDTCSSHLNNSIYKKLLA
Source text: We obtained an evaluation of the potencies of the various TRPs, relative to P5, by using the linear portions of the concentration-effect curves, so as to calculate for several response levels the average ratio of concentrations (REC) of an individual TRP, relative to concentration of P5 that caused the same contractile response (i.e. REC =ECTRP .div.ECPS). […] In the RA assay, a similar approach to the estimate of relative potencies (REC S) was used, even though all agonists, except for P5--OCH3, appeared to cause equivalent maximal relaxation (FIG. 2, lower).
as §1, with “peptide agonists. For the GLM and RLM assays, concentration-effect curves for all peptides were constructed by expressing the response of each agonist as a percentage (% P595) relative to the contraction caused by 95 μM (60 μg/mL) P5 (0.9±0.1 g tension: mean ±S.E.M. for n=12 in the GLM; 1.6±0.9 g tension: mean ±S.E.M. for n=36 in the RLM).” for “peptide agonists.”
Weighed peptide samples were routinely dissolved in 50 mM phosphate buffer, pH 7.4, to yield stock solutions, from which volumes of up to 0.2 mL were added directly to the organ bath; the concentrations of all stock solutions used were verified by quantitative amino acid analysis of aliquots. Pr-P4 and Pr-P4--NH2 were dissolved in 40 mM phosphate buffer, pH 7.4, containing 20% v/v absolute ethanol (i.e. 8 Vol of the above 50 mM phosphate buffer +2 Vol. ethanol). Control aliquots of the ethanol-containing phosphate buffer alone had no effect on either of the bioassay systems. Acetylcholine, carbachol, indomethacin, noradrenaline and angiotensin-II and thrombin (human, 3000 to 4000 U/mg; 1 U/mL.perspectiveto.10 nM) were from Sigma (St. Louis, Mo.); genistein (GS) was from ICN Biochemicals, Costa Mesa, Calif. Tyrphostin (TP) (RG 50864, also designated AG213) was obtained through the courtesy of Dr. R. R. Swillo, Rhone-Poulenc Rorer (Collegeville, Pa). […] Indomethacin was dissolved in ethanol, such that the final ethanol concentration in the organ bath was at or lower than 0.01% v/v; this concentration of ethanol alone had no effect on the bioassay systems.

[4] = average concentration ratio relative to P5 causing equal contractile response (REC = EC TRP ÷ EC P5)
[5] = average concentration ratio relative to P5 causing equal relaxation response (REC = EC TRP ÷ EC P5)

CC(C)C[C@H](NC(=O)[C@H](CC(C)C)NC(=O)[C@H](Cc1ccccc1)NC(=O)[C@H](C)N)C(=O)N[C@@H](CCCNC(=N)N)C(=O)O [AP5, A42 FLLR46] (H-AFLLR-OH)
Relative potency (REC) GLM [1]: 1.8 | Relative potency (REC) RA [2]: 1.7

COC(=O)[C@H](CCCNC(=N)N)NC(=O)[C@H](CC(C)C)NC(=O)[C@H](CC(C)C)NC(=O)[C@H](Cc1ccccc1)NC(=O)[C@@H](N)CO [P5-OCH-3, S42 FLLR46 -O-Methyl]
Relative potency (REC) GLM [1]: 0.1 | Relative potency (REC) RA [2]: 0.1 | Agonist (relaxation) activity ([2]; RA): partial agonist

CC(C)C[C@H](NC(=O)[C@H](CC(C)C)NC(=O)[C@H](Cc1ccccc1)NC(=O)[C@@H](N)CO)C(=O)N[C@@H](CCCN=C(N)N)C(=O)N[C@@H](CC(N)=O)C(=O)N1CCC[C@H]1C(=O)O [P7, S42 FLLRNP48] (H-SFLLRNP-OH)
Relative potency (REC) RLM [3]: 0.3

CC(C)C[C@H](NC(=O)[C@H](CC(C)C)NC(=O)[C@H](Cc1ccccc1)NC(=O)[C@@H](N)CO)C(=O)N[C@@H](CCCNC(=N)N)C(=O)N[C@@H](CC(N)=O)C(=O)N1CCC[C@H]1C(=O)O [P7, S42 FLLRNP48] (H-SFLLRNP-OH)
Relative potency (REC) GLM [1, 4]: 0.4 | Relative potency (REC) RA [2, 5]: 1.1

CC(C)C[C@H](NC(=O)[C@H](CC(C)C)NC(=O)[C@H](Cc1ccccc1)NC(=O)[C@@H](N)CO)C(=O)N[C@@H](CCCN=C(N)N)C(=O)N[C@@H](CC(N)=O)C(=O)N1CCC[C@H]1C(N)=O [P7-NH2, S42 FLLRNP48 -amide] (H-SFLLRNP-NH2)
Relative potency (REC) RLM [3]: 0.1

CC(C)C[C@H](NC(=O)[C@H](CC(C)C)NC(=O)[C@H](Cc1ccccc1)NC(=O)[C@@H](N)CO)C(=O)N[C@@H](CCCNC(=N)N)C(=O)N[C@@H](CC(N)=O)C(=O)N1CCC[C@H]1C(N)=O [P7-NH2, S42 FLLRNP48 -amide] (H-SFLLRNP-NH2)
Relative potency (REC) GLM [1, 4]: 0.04 | Agonist (relaxation) activity ([2]; RA): active | Relative potency (REC) RA [2, 5]: 0.08

CC(C)C[C@H](NC(=O)[C@H](CC(C)C)NC(=O)[C@H](Cc1ccccc1)NC(=O)[C@@H](N)CO)C(=O)N[C@@H](CCCCN)C(=O)O [PK5, S42 FLLK46] (H-SFLLK-OH)
Relative potency (REC) GLM [1]: 4.5 | Relative potency (REC) RA [2]: 1.3

CCC(=O)N[C@@H](Cc1ccccc1)C(=O)N[C@@H](CC(C)C)C(=O)N[C@@H](CC(C)C)C(=O)N[C@@H](CCCNC(=N)N)C(=O)O [Pr-P4, N-propionyl-F43 LLR46] (Propionyl-FLLR-OH)
Relative potency (REC) GLM [1]: 1 | Relative potency (REC) RA [2]: 0.1

CCC(=O)N[C@@H](Cc1ccccc1)C(=O)N[C@@H](CC(C)C)C(=O)N[C@@H](CC(C)C)C(=O)N[C@@H](CCCNC(=N)N)C(N)=O [Pr-P4-NH2, N-propionyl-F43 -LLR46 -amide] (Propionyl-FLLR-NH2)
Relative potency (REC) RA [2, 5]: A.

CC(C)C[C@H](NC(=O)[C@H](Cc1ccccc1)NC(=O)[C@H](Cc1ccccc1)NC(=O)[C@@H](N)CO)C(=O)N[C@@H](CCCNC(=N)N)C(=O)O [Ra-P5, SFFLR] (H-SFFLR-OH)
Relative potency (REC) RLM [3]: 1.0 | Relative potency (REC) RA [2, 5]: 4.4

CC(C)C[C@H](NC(=O)[C@H](Cc1ccccc1)NC(=O)[C@H](Cc1ccccc1)NC(=O)[C@@H](N)CO)C(=O)N[C@@H](CCCNC(=N)N)C(N)=O [Ra-P5-NH2, SFFLR-amide] (H-SFFLR-NH2)
Relative potency (REC) RLM [3]: 0.07 | Agonist (contractile) activity ([3]; RLM): most potent of all of the peptides we examined | Agonist (relaxation) activity ([2]; RA): considerably less potent than the comparable human receptor sequences | Relative potency (REC) RA [2, 5]: 0.2

CC(C)C[C@H](NC(=O)[C@H](Cc1ccccc1)NC(=O)[C@H](Cc1ccccc1)NC(=O)[C@@H](N)CO)C(=O)N[C@@H](CCCNC(=N)N)C(=O)N[C@@H](CC(N)=O)C(=O)N1CCC[C@H]1C(=O)O [Ra-P7, SFFLRNP] (H-SFFLRNP-OH)
Relative potency (REC) RLM [3]: 0.3 | Relative potency (REC) RA [2, 5]: 0.6

O=c1c(-c2ccc(O)cc2)coc2cc(O)cc(O)c12 [genistein, reference compound]
Effect of inhibitor on contractile actions of P5--NH2 and Pr-P4 [1]: similarly effective | Effect of inhibitor on contractile action of carbachol ([3]; RLM): unaffected | Inhibition of the RLM response to P5-NH2 ([3]; mean ±S.E.M. for n=6): 77±3 % inhibition

COc1ccc2c(c1)c(CC(=O)O)c(C)n2C(=O)c1ccc(Cl)cc1 [indomethacin, reference compound]
Effect of inhibitor on contractile actions of P5--NH2 and Pr-P4 [1]: blocked | Inhibition of the RLM response to P5-NH2 [3]: 40±6 % inhibition | Effect of inhibitor on contractile action of carbachol ([3]; RLM): unaffected | Effect of inhibitor on RA relaxation responses to TRPs ([2]; RA, P5-NH2 and Pr-P4): not inhibited

COc1cc2ncnc(Nc3cccc(Cl)c3)c2cc1OC [tyrphostin, Tyrphostin, reference compound]
Effect of inhibitor on contractile actions of P5--NH2 and Pr-P4 [1]: blocked | Sensitivity of the RLM response to P5-NH2 to the inhibitor [3]: quite sensitive
